The record followed here is US9408386B2, “Use of succinate dehydrogenase inhibitors (SDHIs) for controlling wood diseases in grape” (BAYER CROPSCIENCE AG, priority 2012, dated 2016).

Each structure is given as a SMILES string.

Holding throughout (assay type): cell-based
Test [1] concerns Formitiporia mediteranea. Nature of the test: In vitro mycelium growth test on malt agar medium. The method, then: (§1) This test is carried out on representative fungi found in grape plants showing “Esca” Symptoms
(§2) Formulated products are diluted in sterilized dematerialized water at the desired concentration and added to malt agar medium. Fluopyram and penflufen were used as a […] formulation formulation containing 100 g/l active ingredient (SC 100), Bixafen as a emulsifiable concentrate formulation containing 200 g/l active ingredient (EC 200), and tebuconazole as a oil in water emulsion formulation containing 250 g/l active ingredient (EW 250). The medium containing the product to be tested is poured in 90 mm diameter Petri dishes. Each dish is then inoculated using a 5 mm diameter mycelium plug taken, using a cork borer, from the active growing edge of a colony.
(§3) Inoculated Petri dishes are then incubated at 22° C. with a photoperiod of 12 h. The incubation period corresponds to the time required for the fungus to invade the entire surface of the growth medium. At that time, mycelium growth is evaluated by calculating the mean of two perpendicular measure of the colony diameter. A percentage of efficacy is then calculated (Abbott formula).
(§4) The concentration of 50 ppm corresponds approximately to about 50 g/ha when an application amount of 1000 l water per hectare is used.

Test [2] concerns Phaeoacremonium aleophilum. The test can be described thus: In vitro mycelium growth test on malt agar medium. To be noted: 50 ppm in malt agar, 22° C., colony diameter, Abbott formula. The method, then:
as §1, §2, §3, §4

Test [3] has as its system Botryosphaeria obtusa. Nature of the test: In vitro mycelium growth test on malt agar medium. The conditions noted are these: 50 ppm in malt agar, 22° C., colony diameter, Abbott formula. The method, then:
as §1, §2, §3, §4

Test [4] relates to Phaemoniella chlamydospora. Nature of the test: In vitro mycelium growth test on malt agar medium. The method, then: as §1, §2, §3, §4
Test [5] concerns Botryosphaeria dothidea. The test can be described thus: In vitro mycelium growth test on malt agar medium. To be noted: 50 ppm in malt agar, 22° C., colony diameter, Abbott formula. The method, then:
as §1, §2, §3, §4

The subject of test [6] is Eutypa lata. Nature of the test: In vitro mycelium growth test on malt agar medium. To be noted: 50 ppm in malt agar, 22° C., colony diameter, Abbott formula. The method, then: as §1, §2, §3, §4
For test [7], the system named is several fungi belonging to the community usually found in plants showing Esca symptoms. Nature of the test: In vitro mycelium growth test, summary over the Esca fungi community. To be noted: at 50 ppm. The method, then:
as §1, §2, §3, §4

Where [8] appears, read: Formitiporia mediteranea, 50 ppm in malt agar, 22° C., colony diameter, Abbott formula.
Where [9] appears, read: Phaemoniella chlamydospora, 50 ppm in malt agar, 22° C., colony diameter, Abbott formula.

Turning to `CC(C)(C)C(O)(CCc1ccc(Cl)cc1)Cn1cncn1` (stereo not drawn) [Tebuconazole, tebuconazole], the “In Vitro Efficacy Mycellium**” value in test [1] (50 ppm), in test [2], in test [3], in test [4] (50 ppm), in test [5] and in test [6] was 100% in each case.

For the compound `Cn1cc(C(=O)Nc2ccc(F)cc2-c2ccc(Cl)c(Cl)c2)c(C(F)F)n1` [Bixafen, bixafen], in test [7], the “reduction of several fungi of the Esca community” value (shortened to “reduction”) is “significant reduction”. The “In Vitro Efficacy Mycellium**” value in test [1] (setting [8]) was 100%; in test [2] it was 69%; in test [3], 85%; in test [4] (setting [9]), 100%; in test [5] it was 86%; in test [6], 100%.

`O=C(NCCc1ncc(C(F)(F)F)cc1Cl)c1ccccc1C(F)(F)F` [Fluopyram, N-[2-[3-chloro-5-(trifluoromethyl)-2-pyridinyl]ethyl]-2-(trifluoromethyl)benzamide]: the “reduction” value in test [7] is reported as “significant reduction”. For the same compound, the “In Vitro Efficacy Mycellium**” value is recorded as 10% in test [1] (50 ppm); 35% in test [2]; 65% in test [3]; 59% in test [4] (50 ppm); 55% in test [5]; 61% in test [6].

Regarding `Cc1nn(C)c(F)c1C(=O)Nc1ccccc1C(C)CC(C)C` (stereo not drawn) [Penflufen, penflufen], the “reduction” value in test [7] is reported as “significant reduction”. The “In Vitro Efficacy Mycellium**” value in test [1] (setting [8]) is 100%; in test [2], 62%; in test [3] it was 65%; in test [4] (setting [9]), 75%; in test [5], 64%; in test [6] it was 83%.
